Source: paper PMC6768028, “Synthesis, SAR and in vitro therapeutic potentials of thiazolidine-2,4-diones” (Chemistry Central Journal, 2018)
In brackets after ≈: the same amount, converted by molar mass.

Legend:
Bacillus subtilis = experiment: Antimicrobial activity, tube dilution method (MIC); type: cell-based; settings: 24 h, read-out: Minimum inhibitory concentration, B. subtilis, tube dilution, 37 ± 1 °C, 24 h
Experimental: (§1) The in vitro antimicrobial activity of synthesized compounds was done by tube dilution method against Gram-positive bacteria: Staphylococcus aureus, Bacillus subtilis, Gram-negative bacteria: Escherichia coli, Klebsiella pneumonia, Salmonella typhi and fungal: Candida albicans and Aspergillus niger strains using cefadroxil and fluconazole as standard. Dilutions of test and standard compounds were prepared in double strength nutrient broth for bacterial strains and Sabouraud dextrose broth for fungal strains.

Escherichia coli = experiment: Antimicrobial activity, tube dilution method (MIC); type: cell-based; settings: 24 h, read-out: Minimum inhibitory concentration, E. coli, tube dilution, 37 ± 1 °C, 24 h
Experimental: as §1

Klebsiella pneumonia = experiment: Antimicrobial activity, tube dilution method (MIC); type: cell-based; settings: Klebsiella pneumoniae, 24 h, read-out: Minimum inhibitory concentration, K. pneumonia, tube dilution, 37 ± 1 °C, 24 h
Experimental: as §1

Salmonella typhi = experiment: Antimicrobial activity, tube dilution method (MIC); type: cell-based; settings: 24 h; for MIC: Salmonella enterica, TYPHI, read-out: Minimum inhibitory concentration, S. typhi
Experimental: as §1

Staphylococcus aureus = experiment: Antimicrobial activity, tube dilution method (MIC); type: cell-based; settings: 24 h, read-out: Minimum inhibitory concentration, S. aureus, tube dilution, 37 ± 1 °C, 24 h
Experimental: as §1

Aspergillus niger = experiment: Antifungal activity, tube dilution method (MIC); type: cell-based; settings: 168 h, read-out: Minimum inhibitory concentration, A. niger, tube dilution, 25 ± 1 °C, 7 days
Experimental: as §1

Candida albicans = experiment: Antifungal activity, tube dilution method (MIC); type: cell-based; settings: 48 h, read-out: Minimum inhibitory concentration, C. albicans, tube dilution, 37 ± 1 °C, 48 h
Experimental: as §1

[1] = test system: α-amylase enzyme (diastase); experiment: Antidiabetic activity: α-amylase inhibitory activity using diastase, colorimetric method; type: biochemical; settings: for IC50 (antidiabetic activity, α-amylase): calculated via graph of % inhibition
Experimental: All the synthesized compounds were evaluated against α-amylase inhibitory activity by using diastase based on colorimetric method. 0.25 g of soluble potato starch was dissolved in 50 ml of 20 mM phosphate buffer by heating for 15 min. 1 mg diastase (amylase enzyme) was mixed in 100 ml of 20 mM phosphate buffer (pH 6.9) to obtain the enzyme solution. Different concentrations of all the synthesized derivatives were prepared by dissolving them in DMSO. […] 1 ml of enzyme solution was mixed with 1 ml of each synthesized derivatives and incubated for 10 min at 25 °C. Then 1 ml of this mixture was mixed with 1 ml of soluble potato starch solution in a tube and incubated for 10 min at 25 °C. Then tubes were closed after adding 1 ml of color reagent and placed into water bath for 15 min at 85 °C. The reaction mixture was removed from water bath after 15 min. After cooling, the reaction mixture was diluted with 9 ml of distilled water and the absorbance was taken at 540 nm in UV spectrophotometer. Blank solution was prepared by replacing the enzyme solution with buffer solution and absorbance was taken. Measurement of control was performed in identical manner by replacing the synthesized derivatives in 1 ml of DMSO.
Percentage inhibition of α-amylase enzyme was calculated by using following formula:1 %Inhibition=ABlank-ASample/ABlank×100

[2] = Antioxidant activity: free radical scavenging method by DPPH assay; settings: for % inhibition (DPPH), 25 μg/ml / % inhibition (DPPH), 50 μg/ml / % inhibition (DPPH), 75 μg/ml / % inhibition (DPPH), 100 μg/ml: 30 min, 517 nm; for IC50 (antioxidant activity, DPPH): calculated via graph of % inhibition
Experimental: The antioxidant activity of the newly synthesized compounds were evaluated spectrophotometrically using free radical scavenging method by DPPH (2,2-diphenyl-1-picrylhydrazyl) assay. The DPPH is a stable free radical with maximal absorption at 517 nm and is reduced to a corresponding hydrazine when it reacting with hydrogen donors. […] DPPH solution (3 μg/ml) was prepared in methanol and DPPH (in 1:1) solution was used for blank reference. Four dilutions of different concentrations (25, 50, 75 and 100 μg/ml) of each synthesized compound and standard (ascorbic acid) were prepared in the methanol and 1 ml of each concentration was added to 1 ml of DPPH solution. The solution mixture was shaken vigorously and kept in dark place for 30 min at room temperature and absorbance was measured by UV at 517 nm. Percentage inhibition of Free radical DPPH was calculated as follows:1 %Inhibition=ABlank-ASample/ABlank×100 where, ABlank: absorbance of the blank reaction, ASample: absorbance of the test compound.

| Structure (SMILES) | MIC (Bacillus subtilis) [mM] | MIC (Escherichia coli) [mM] | MIC (Klebsiella pneumonia) [mM] | MIC (Salmonella typhi) [mM] | MIC (Staphylococcus aureus) [mM] | MIC (Aspergillus niger) [mM] | MIC (Candida albicans) [mM] | % inhibition (α-amylase), 25 μg/ml [1] [%] | % inhibition (α-amylase), 50 μg/ml [1] [%] | % inhibition (α-amylase), 75 μg/ml [1] [%] | % inhibition (α-amylase), 100 μg/ml [1] [%] | IC50 (antidiabetic activity, α-amylase) [1] [µg/mL] | % inhibition (DPPH), 25 μg/ml [2] [%] | % inhibition (DPPH), 50 μg/ml [2] [%] | % inhibition (DPPH), 75 μg/ml [2] [%] | % inhibition (DPPH), 100 μg/ml [2] [%] | IC50 (antioxidant activity, DPPH) [2] [µg/mL] | melting point [°C] | Minimum inhibitory concentration, S. typhi (Salmonella typhi; tube dilution, 37 ± 1 °C) [μΜ/ml] |
| --- | --- | --- | --- | --- | --- | --- | --- | --- | --- | --- | --- | --- | --- | --- | --- | --- | --- | --- | --- |
| CN(C)c1ccc(C=C2SC(=O)NC2=O)cc1 [Compound 6, 5-(4-(Dimethylamino)benzylidene)thiazolidine-2,4-dione] | 5 (≈ 1240 µg/mL) | 4.99 (≈ 1240 µg/mL) | 10.1 (≈ 2500 µg/mL) | 5 (≈ 1240 µg/mL) | 5 (≈ 1240 µg/mL) | 10.1 (≈ 2500 µg/mL) | 20.1 (≈ 4990 µg/mL) | 33.56 | 49.45 | 50.78 | 97.15 | 37.35 (≈ 150 µM) | 19.54 | 38.93 | 62.65 | 75.82 | 48.13 (≈ 194 µM) | 147 to 150 |  |
| O=C1NC(=O)C(=Cc2cccc([N+](=O)[O-])c2)S1 [Compound 7, 5-(3-Nitrobenzylidene)thiazolidine-2,4-dione] | 9.9 (≈ 2480 µg/mL) | 4.99 (≈ 1250 µg/mL) | 4.99 (≈ 1250 µg/mL) | 4.99 (≈ 1250 µg/mL) | 4.99 (≈ 1250 µg/mL) | 9.9 (≈ 2480 µg/mL) | 4.99 (≈ 1250 µg/mL) | 24.72 | 35.71 | 64.87 | 97.15 | 56.09 (≈ 224 µM) | 20.51 | 35.61 | 79.74 | 86.04 | 55.23 (≈ 221 µM) | 110 to 113 |  |
| CCN(CC)c1ccc(/C=C2/SC(=O)NC2=O)cc1 [Compound 8] | 4.5 (≈ 1240 µg/mL) | 5 (≈ 1380 µg/mL) | 4.5 (≈ 1240 µg/mL) | 4.5 (≈ 1240 µg/mL) | 4.5 (≈ 1240 µg/mL) | 4.5 (≈ 1240 µg/mL) | 4.5 (≈ 1240 µg/mL) | 20.79 | 39.54 | 40.89 | 93.17 | 56.89 (≈ 206 µM) | 26.93 | 33.78 | 62.23 | 65.78 | 31.15 (≈ 113 µM) | 158 to 160 |  |
| O=C1NC(=O)C(=Cc2ccc(Br)cc2)S1 [Compound 9, 5-(4-Bromobenzylidene)thiazolidine-2,4-dione] | 8.79 (≈ 2500 µg/mL) | 8.79 (≈ 2500 µg/mL) | 8.79 (≈ 2500 µg/mL) | 4.3 (≈ 1220 µg/mL) | 4.3 (≈ 1220 µg/mL) | 4.3 (≈ 1220 µg/mL) | 4.3 (≈ 1220 µg/mL) | 24.73 | 53.78 | 68.34 | 89.37 | 41.67 (≈ 147 µM) | 36.83 | 45.41 | 71.51 | 87.34 | 27.66 (≈ 97.3 µM) | 150 to 152 |  |
| COc1cc(C=C2SC(=O)NC2=O)cc(OC)c1OC [Compound 10, 5-(3,4,5-Trimethoxybenzylidene)thiazolidine-2,4-dione] |  | 8.4 (≈ 2480 µg/mL) | 4.2 (≈ 1240 µg/mL) | 4.2 (≈ 1240 µg/mL) |  |  |  | 29.34 | 43.98 | 63.36 | 98.14 | 47.49 (≈ 161 µM) | 28.61 | 39.67 | 59.75 | 86.70 | 43.44 (≈ 147 µM) | 210 to 213 | 4.20 |
| O=C1NC(=O)/C(=C\c2cccc(Cl)c2)S1 [Compound 14, 5-(3-Chlorobenzylidene)thiazolidiine-2,4-dione] |  |  |  |  |  |  |  |  |  |  |  |  |  |  |  |  |  | 137 to 140 |  |
| COc1ccccc1C=C1SC(=O)NC1=O [Compound 15, 5-(2-Methoxybenzylidene)thiazolidine-2,4-dione] | 5.31 (≈ 1250 µg/mL) | 5.31 (≈ 1250 µg/mL) |  | 5.31 (≈ 1250 µg/mL) | 5.31 (≈ 1250 µg/mL) | 5.31 (≈ 1250 µg/mL) | 5.31 (≈ 1250 µg/mL) | 32.59 | 51.78 | 66.98 | 81.30 | 22.35 (≈ 95 µM) | 33.51 | 43.98 | 77.21 | 98.67 | 43.25 (≈ 184 µM) | 147 to 150 |  |
| COc1cc(C=C2SC(=O)NC2=O)ccc1O [Compound 18, 5-(4-Hydroxy-3-methoxybenzylidene)thiazolidine-2,4-dione] | 4.9 (≈ 1230 µg/mL) | 4.9 (≈ 1230 µg/mL) | 9.9 (≈ 2490 µg/mL) | 4.9 (≈ 1230 µg/mL) | 4.9 (≈ 1230 µg/mL) | 4.9 (≈ 1230 µg/mL) | 4.9 (≈ 1230 µg/mL) | 18.64 | 45.85 | 65.11 | 95.98 | 56.39 (≈ 224 µM) | 36.94 | 43.52 | 60.12 | 93.03 | 33.51 (≈ 133 µM) |  |  |
| COc1ccc(C=C2SC(=O)NC2=O)cc1OC [Compound 19, 5-(3,4-Dimethoxybenzylidene)thiazolidine-2,4-dione] | 4.7 (≈ 1250 µg/mL) | 4.7 (≈ 1250 µg/mL) | 9.4 (≈ 2490 µg/mL) | 4.7 (≈ 1250 µg/mL) | 4.7 (≈ 1250 µg/mL) | 4.7 (≈ 1250 µg/mL) | 4.7 (≈ 1250 µg/mL) | 29.33 | 47.77 | 58.34 | 90.86 | 40.01 (≈ 151 µM) | 28.64 | 39.67 | 73.41 | 90.05 | 46.03 (≈ 174 µM) |  |  |
| O=C1NC(=O)C(=C/C=C/c2ccccc2)S1 [Compound 20, 5-((E)-3-Phenylallylidene)thiazolidine-2,4-dione] | 5.4 (≈ 1250 µg/mL) | 5.4 (≈ 1250 µg/mL) | 10.8 (≈ 2500 µg/mL) | 5.4 (≈ 1250 µg/mL) | 5.4 (≈ 1250 µg/mL) | 5.4 (≈ 1250 µg/mL) | 5.4 (≈ 1250 µg/mL) | 34.73 | 45.98 | 68.34 | 88.45 | 31.62 (≈ 137 µM) | 25.64 | 46.93 | 69.55 | 87.97 | 43.89 (≈ 190 µM) |  |  |
